{"source": "paper PMC6678097", "about": "“Machilin A Inhibits Tumor Growth and Macrophage M2 Polarization Through the Reduction of Lactic Acid” (Cancers, 2019)", "key": {"HT29 cells": {"test_system": "HT29 cells", "assay": "Mitochondrial ROS, MitoSOX FACS", "type": "cell-based, human", "conditions": "24 h", "protocol": "The production of mitochondrial ROS was determined by MitoSOX™ Red (Thermo Fisher Scientific, Waltham, MA, USA), respectively. Briefly, 5 μM MitoSOX™ Red was added to each cells cultured in conditioned medium and incubated at 37 °C for 10 min. The cells were then washed twice with PBS and the fluorescence intensity was analyzed using a BD FACS Canto II (BD Biosciences, San Jose, CA, USA) measuring excitation/emission at wavelength of 510/580 nm."}, "[1]": {"test_system": "HT29 colorectal cancer cells", "assay": "Measurement of intracellular ATP", "type": "cell-based, human", "conditions": "machilin A 30 μM, hypoxia", "protocol": "Intracellular ATP concentration was measured using an ATP bioluminescent somatic cell assay kit (Sigma-Aldrich) as previously described. A total of 1 × 10^6 cells were trypsinized and resuspended in ultrapure water. Luminescence was measured using a spectrofluometer (Spectramax M2, Molecular Devices, CA, USA) immediately after the addition of an ATP enzyme mix to the cell suspension."}, "[2]": {"assay": "In vivo toxicity to liver and kidney (serum AST, ALT, creatinine, BUN)", "conditions": "mice with allograft tumors", "protocol": "LLC and CT26 cells were suspended separately in PBS (5 × 10^5 cells/100 µL PBS) and inoculated in subcutaneously on the back of 7-week-old C57BL/6 mice and BALB/c mice respectively (Orient Bio Inc., Seongnam, Korea; n = 7). One day after the inoculation with tumor cells, mice of the control group (n = 7) were intraperitoneally administrated 100 µL of PBS per day for 18 days. Each of the MA-treated mice were intraperitoneally administrated 0.02, 0.2, or 1 mg MA, respectively, in 100 µL PBS per 20 g body weight, each day for 18 days. All mice were euthanized 19 days after inoculation with the tumor cells, and the tumors were excised and weighed. Length (l) and width (w) of each tumor were measured using a caliper, and the respective volume (V) was calculated according to the formula V = [(l × w^2)/2]. Tumors were immediately removed from euthanized mice and prepared for histological examinations. To test liver and kidney toxicity of MA, at the end of the in vivo allograft experiment blood was collected from each mouse and serum was separated. Biochemical analyses of aspartate aminotransferase (AST), alanine aminotransferase (ALT), creatinine, and blood urea nitrogen (BUN) were performed using a commercial service (Green Cross Co., Yongin, Korea). […]"}, "HUVECs": {"test_system": "HUVECs", "assay": "Growth (MTT) and tube formation of endothelial cells, direct treatment", "type": "cell-based, human", "conditions": "24 h", "protocol": "Figure S10. The viabilities of HUVECs and RAW264.7 cells on MA. (A) HUVECs were treated with indicated concentration of machilin A for 24 h. The viabilities of cells were evaluated by MTT assay.\n(B ) HUVECs seeded to the Matrigel-coated wells treated with machilin A for 24 h. ( C) Raw 264.7 macrophage cells were treated with indicated concentration of machilin A for 24 h. The viabilities of cells were evaluated by MTT assay.\n(1 picture or pasted object on this page, not shown here)"}, "[3]": {"test_system": "RAW264.7 macrophage cells", "assay": "M2 marker expression in macrophages treated with conditioned medium of MA-treated cancer cells", "type": "cell-based", "conditions": "medium harvested from MA-treated (30 µM) cancer cells in hypoxic condition", "protocol": "Total RNA of the cells was isolated using a GeneJET RNA Purification Kit (Thermo Fisher Scientific, Waltham, MA, USA). One microgram of RNA was reverse-transcribed using a RevertAid reverse transcriptase (Thermo Fisher Scientific, Waltham, MA, USA), and single-stranded cDNA was PCR-amplified using AccPower® PCR PreMix (Bioneer, Daejeon, Korea). The qRT-PCR was performed using the QuantiNova™ SYBR®Green PCR Kit (Qiagen, GmbH, Hilden, Germany) and a Qiagen Rotor-Gene® Q Real-Time PCR Detection System according to the manufacturer’s instructions. PCR products were separated using electrophoresis on 1.5% agarose gel containing ethidium bromide in 1 × Tris-acetate buffer and were visualized under UV light.\nTo investigate the formation of a capillary-like network of human umbilical vein endothelial cells (HUVECs) through the activation of tumor associated macrophages (TAMs) by lactate secreted by cancer cells, a tube formation assay was performed according to a previous study, with several modifications. For the preparation of conditioned media, HT29 colon cancer cells (3.5 × 10^5 cells) suspended in 2 mL of DMEM were seeded on 6-well plates, with or without addition of 30 µM MA, and incubated under normoxic or hypoxic conditions. […]"}}}
{"molecule": "C[C@H](Cc1ccc2c(c1)OCO2)[C@@H](C)Cc1ccc2c(c1)OCO2", "note": "[MA, bis(3,4-methylenedioxy)-8,8’-lignan]", "values": [{"measurement": "mitochondrial ROS", "setting": "HT29 cells", "result": "induced mitochondrial ROS"}, {"measurement": "increase of adenosine triphosphate (ATP) synthesis in hypoxic condition", "setting": "[1]", "result": "significantly reduced"}, {"measurement": "in vivo toxicity to liver and kidney", "setting": "[2]", "result": "no significant toxic effect"}, {"measurement": "growth and tube formation of endothelial cells", "setting": "HUVECs", "result": "did not directly inhibit"}, {"measurement": "Arg1, CD206, YM1, and VEGF expression in macrophages", "setting": "[3]", "result": "reduction of Arg1, CD206, YM1, and VEGF expression"}]}
